Data as given in US10889834B2, “Methods and compositions for enhancing targeted transgene integration” (Sangamo BioSciences, Inc., priority 2014, dated 2021).

Tested on: Hepa1-6 cells
Assay: Factor IX production by ELISA in Hepa1-6 cells treated with topoisomerase inhibitor and FIX donor AAV (integration at albumin locus)
Type: cell-based, mouse
Details: 0.5-5 uM inhibitor, FIX measured at days 4 and 7
Experimental: For instance, one-hundred thousand Hepa1-6 cells were seeded per well of a 24-well dish and grown until 70% confluent in DMEM+10% FBS. […] Cells were then transfected with one of two Factor IX (FIX)-containing adeno-associated viruses (AAVs) donors (e.g., AAV2/6 vectors at 6e10 vg per sample) and Factor IX production on days 0-4 (day 4) and days 5-7 (day 7) assayed by ELISA.
The FIX donor AAVs contain homology arms (complementary to the 3′ end of the mouse albumin gene) flanking an albumin 3′ intron splice acceptor-albumin 3′ exon-2A-Factor IX cassette. In one instance, the Factor IX cassette was positioned in the forward orientation (F), allowing Factor IX to be produced if the DNA was integrated into the Albumin locus through HDR by the use of the homology arms.
Therefore, we determined the stimulation of Factor IX integration/expression that is specific to integration at the albumin gene in the proper orientation; this number is roughly equal to the Factor IX produced from the forward-orientation virus minus the Factor IX produced by the reverse-orientation virus.

CC[C@@]1(O)C(=O)OCc2c1cc1n(c2=O)Cc2cc3ccccc3nc2-1 [camptothecin]
FIX protein (forward-orientation AAV donor) (human FIX AAV donor in forward (F) orientation): dose-dependent increase in FIX protein
FIX protein (reverse-orientation AAV donor) (human FIX AAV donor in reverse (R) orientation): generally not
